Reference: US7135466B2 (Kirin Beer Kabushiki Kaisha, priority 1999, dated 2006)

target: T1, c-kit (Homo sapiens, UniProt P10721); experiment: Inhibitory activity against c-kit autophosphorylation (MO7e cells, h-SCF); format: cell-based; details: MO7e cells, 50 ng/ml h-SCF; read-out: c-kit IC50
T1 construct: MO7e (human megakaryocytic leukemia cell line) which had been arrested for 20 hr; endogenous in cells; host or cells: MO7e human megakaryocytic leukemia cell line
Description: Inhibitory Activity Against c-kit Autophosphorylation
MO7e (human megakaryocytic leukemia cell line) which had been arrested for 20 hr was seeded into 96 well plates at an amount of 2×10^5 per well. A solution of a test compound in DMSO was added, and a reaction was then allowed to proceed for one hr. Thereafter, the cells were stimulated by 50 ng/ml of h-SCF for 5 min, followed by replacement with lysate buffer to solubilize the cells.
Next, the solubilized cell sap was transferred to a 96-well plate with an anti-phosphotyrosine antibody (PY-20) previously immobilized thereon, and a reaction was allowed to proceed. Thereafter, the cells were reacted with an anti-c-kit antibody (c-19, Santa Cruz) as a primary antibody and were labelled with GAR (anti-rabbit IgG, horseradish peroxidase, Amersham) as a secondary antibody. Color development was then carried out in a peroxidase color development kit (Sumitomo Bakelite Co., Ltd.), and the absorbance was measured at a wavelength of 450 nm.

T1 sequence (P10721 26-976): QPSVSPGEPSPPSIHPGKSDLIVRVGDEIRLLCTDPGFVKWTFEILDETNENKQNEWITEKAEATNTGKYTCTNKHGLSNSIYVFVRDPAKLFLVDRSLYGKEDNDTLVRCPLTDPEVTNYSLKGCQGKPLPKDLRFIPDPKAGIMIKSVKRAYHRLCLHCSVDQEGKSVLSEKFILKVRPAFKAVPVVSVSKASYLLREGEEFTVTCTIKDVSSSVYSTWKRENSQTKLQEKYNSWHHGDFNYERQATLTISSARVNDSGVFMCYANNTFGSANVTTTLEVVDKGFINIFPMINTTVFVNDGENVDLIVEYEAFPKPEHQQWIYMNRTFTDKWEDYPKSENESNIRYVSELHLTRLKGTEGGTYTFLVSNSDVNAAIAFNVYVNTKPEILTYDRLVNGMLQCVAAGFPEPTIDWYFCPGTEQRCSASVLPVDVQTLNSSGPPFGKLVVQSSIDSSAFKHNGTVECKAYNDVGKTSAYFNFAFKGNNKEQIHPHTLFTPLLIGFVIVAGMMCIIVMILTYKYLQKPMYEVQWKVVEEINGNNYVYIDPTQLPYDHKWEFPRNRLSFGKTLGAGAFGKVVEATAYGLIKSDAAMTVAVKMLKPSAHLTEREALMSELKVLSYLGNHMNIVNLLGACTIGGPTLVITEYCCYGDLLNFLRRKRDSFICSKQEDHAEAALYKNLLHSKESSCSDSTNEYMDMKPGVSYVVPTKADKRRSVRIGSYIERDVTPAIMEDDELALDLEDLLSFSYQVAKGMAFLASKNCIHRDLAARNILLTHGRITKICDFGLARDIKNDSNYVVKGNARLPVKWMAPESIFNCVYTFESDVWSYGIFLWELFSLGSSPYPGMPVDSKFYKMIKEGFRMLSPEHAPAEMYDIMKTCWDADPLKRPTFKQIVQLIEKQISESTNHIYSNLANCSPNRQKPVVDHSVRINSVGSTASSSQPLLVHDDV

Row | IC50 | Structure (SMILES)
1 | 46 nM | COc1cc2nccc(Oc3ccc(OCC(=O)Nc4ccc(C)cc4)cc3)c2cc1OC [Example 786, N1-(4-Methylphenyl)-2-{4-[(6,7-dimethoxy-4-quinolyl)oxy]phenoxy}acetamide]
2 | 37 nM | COc1cc2nccc(Oc3ccc(OCCNc4ccc(C)cc4)cc3)c2cc1OC [Example 787, N-(2-{4-[(6,7-Dimethoxy-4-quinolyl)oxy]phenoxy}ethyl)-N-(4-methylphenyl)amine]
3 | 122 nM | COc1cc2nccc(Oc3ccc(OCC(=O)Nc4cccc(Cl)c4)cc3)c2cc1OC [Example 788, N1-(3-Chlorophenyl)-2-{4-[(6,7-dimethoxy-4-quinolyl)oxy]phenoxy}acetamide]
4 | 154 nM | COc1cc2nccc(Oc3ccc(OCC(=O)Nc4ccc(Cl)cc4)cc3)c2cc1OC [Example 789, N1-(4-Chlorophenyl)-2-{4-[(6,7-dimethoxy-4-quinolyl)oxy]phenoxy}acetamide]

same assay, conditions: MO7e cells, h-SCF stimulation; read-out: c-kit IC50

Row | IC50 | Structure (SMILES)
5 | 236 nM | COc1cc2nccc(Oc3ccc(SCCOc4cccc(C)c4)cc3)c2cc1OC [Example 823, 6,7-Dimethoxy-4-(4-{[2-(3-methylphenoxy)ethyl]sulfanyl}phenoxy)quinoline]
6 | 268 nM | COc1cc2nccc(Oc3ccc(SCCOc4ccc(F)cc4)cc3)c2cc1OC [Example 824, 4-(4-{[2-(4-Fluorophenoxy)ethyl]sulfanyl}phenoxy)-6,7-dimethoxyquinoline]
7 | 333 nM | COc1cc2nccc(Oc3ccc(SCCOc4ccc(Cl)cc4Cl)cc3)c2cc1OC [Example 825, 4-(4-{[2-(2,4-Dichlorophenoxy)ethyl]sulfanyl}phenoxy)-6,7-dimethoxyquinoline]
8 | 170 nM | COc1cc2nccc(Oc3ccc(SCCOc4ccc(C)cc4C)cc3)c2cc1OC [Example 826, 4-(4-{[2-(2,4-Dimethylphenoxy)ethyl]sulfanyl}phenoxy)-6,7-dimethoxyquinoline]
9 | 175 nM | COc1cc2nccc(Oc3ccc(SCCOc4ccc(C)c(C)c4)cc3)c2cc1OC [Example 827, 4-(4-{[2-(3,4-Dimethylphenoxy)ethyl]sulfanyl}phenoxy)-6,7-dimethoxyquinoline]
10 | 668 nM | COc1cc2nccc(Oc3ccc(S(=O)(=O)CCOc4ccc(C(C)C)cc4)cc3)c2cc1OC [Example 835, 4-[(6,7-Dimethoxy-4-quinolyl)oxy]phenyl [2-(4-isopropylphenoxy)ethyl]sulfone]
11 | 118 nM | COc1cc2nccc(Oc3ccc(SCCCOc4cccc(C)c4)cc3)c2cc1OC [Example 841, 6,7-Dimethoxy-4-(4-{[3-(3-methylphenoxy)propyl]sulfanyl}phenoxy)quinoline]
12 | 127 nM | COc1cc2nccc(Oc3ccc(SCCCOc4ccccc4F)cc3)c2cc1OC [Example 842, 4-(4-{[3-(2-Fluorophenoxy)propyl]sulfanyl}phenoxy)-6,7-dimethoxyquinoline]
13 | 263 nM | COc1cc2nccc(Oc3ccc(SCCCCOc4ccccc4F)cc3)c2cc1OC [Example 843, 4-(4-{[4-(2-Fluorophenoxy)butyl]sulfanyl}phenoxy)-6,7-dimethoxyquinoline]
14 | 450 nM | COc1cc2nccc(Oc3ccc(SCCCCOc4cccc(C)c4)cc3)c2cc1OC [Example 844, 6,7-Dimethoxy-4-(4-{[4-(3-methylphenoxy)butyl]sulfanyl}phenoxy)quinoline]
15 | 453 nM | COc1cc2ncnc(Oc3ccc(SCCCOc4ccccc4F)cc3)c2cc1OC [Example 845, 4-(4-{[3-(2-Fluorophenoxy)propyl]sulfanyl}phenoxy)-6,7-dimethoxyquinazoline]
16 | 943 nM | COc1cc2ncnc(Oc3ccc(SCCCCOc4ccccc4F)cc3)c2cc1OC [Example 848, 4-(4-{[4-(2-Fluorophenoxy)butyl]sulfanyl}phenoxy)-6,7-dimethoxyquinazoline]
17 | 760 nM | COc1cc2ncnc(Oc3ccc(SCCOc4ccccc4F)cc3)c2cc1OC [Example 849, 4-(4-{[2-(2-Fluorophenoxy)ethyl]sulfanyl}phenoxy)-6,7-dimethoxyquinazoline]
18 | 278 nM | COc1cc2ncnc(Oc3ccc(SCCOc4cccc(C)c4)cc3)c2cc1OC [Example 850, 6,7-Dimethoxy-4-(4-{[2-(3-methylphenoxy)ethyl]sulfanyl}phenoxy)quinazoline]
19 | 75 nM | COc1cc2nccc(Oc3ccc(NCCOc4ccc(Cl)cc4Cl)cc3)c2cc1OC [Example 851, N-[2-(2,4-Dichlorophenoxy)ethyl]-N-{4-[(6,7-dimethoxy-4-quinolyl)oxy]phenyl}amine]
20 | 179 nM | COc1cc2nccc(Oc3ccc(NCCOc4ccccc4C)cc3)c2cc1OC [Example 852, N-{4-[(6,7-Dimethoxy-4-quinolyl)oxy]phenyl}-N-[2-(2-methylphenoxy)ethyl]amine]
21 | 102 nM | COc1cc2nccc(Oc3ccc(NCCOc4ccccc4OC)cc3)c2cc1OC [Example 853, N-{4-[(6,7-Dimethoxy-4-quinolyl)oxy]phenyl}-N-[2-(2-methoxyphenoxy)ethyl]amine]
22 | 313 nM | COc1cc2nccc(Oc3ccc(NCCOc4c(Cl)cccc4Cl)cc3)c2cc1OC [Example 854, N-[2-(2,6-Dichlorophenoxy)ethyl]-N-{4-[(6,7-dimethoxy-4-quinolyl)oxy]phenyl}amine]
23 | 399 nM | COc1cc2nccc(Oc3ccc(NCCOc4c(C)cccc4C)cc3)c2cc1OC [Example 855, N-{4-[(6,7-Dimethoxy-4-quinolyl)oxy]phenyl}-N-[2-(2,6-dimethylphenoxy)ethyl]amine]

The next lines start with the molecule.

Row | Structure (SMILES) | IC50
24 | COc1cccc(OCCSc2ccc(Oc3ccnc4cc(OC)c(OC)cc34)cc2)c1 [Example 812, 6,7-Dimethoxy-4-(4-{[2-(3-methoxyphenoxy)ethyl]sulfanyl}phenoxy)quinoline] | 326 nM
25 | COc1ccc(OCCSc2ccc(Oc3ccnc4cc(OC)c(OC)cc34)cc2)cc1 [Example 813, 6,7-Dimethoxy-4-(4-{[2-(4-methoxyphenoxy)ethyl]sulfanyl}phenoxy)quinoline] | 402 nM
26 | COc1cc2nccc(Oc3ccc(SCCOc4ccc(C)cc4)cc3)c2cc1OC [Example 814, 6,7-Dimethoxy-4-(4-{[2-(4-methylphenoxy)ethyl]sulfanyl}phenoxy)quinoline] | 405 nM
27 | COc1cc2nccc(Oc3ccc(SCCOc4ccccc4C(C)C)cc3)c2cc1OC [Example 815, 4-(4-{[2-(2-Isopropylphenoxy)ethyl]sulfanyl}phenoxy)-6,7-dimethoxyquinoline] | 180 nM
28 | COc1cc2nccc(Oc3ccc(SCCOc4ccc(C(C)C)cc4)cc3)c2cc1OC [Example 816, 4-(4-{[2-(4-Isopropylphenoxy)ethyl]sulfanyl}phenoxy)-6,7-dimethoxyquinoline] | 123 nM
29 | COc1cc2nccc(Oc3ccc(SCCOc4ccccc4C)cc3)c2cc1OC [Example 817, 6,7-Dimethoxy-4-(4-{[2-(2-methylphenoxy)ethyl]sulfanyl}phenoxy)quinoline] | 195 nM
30 | COc1cc2nccc(Oc3ccc(SCCOc4ccc(Cl)cc4)cc3)c2cc1OC [Example 818, 4-(4-{[2-(4-Chlorophenoxy)ethyl]sulfanyl}phenoxy)-6,7-dimethoxyquinoline] | 205 nM
31 | COc1cc2nccc(Oc3ccc(SCCOc4ccccc4Cl)cc3)c2cc1OC [Example 819, 4-(4-{[2-(2-Chlorophenoxy)ethyl]sulfanyl}phenoxy)-6,7-dimethoxyquinoline] | 212 nM
32 | COc1cc2nccc(Oc3ccc(SCCOc4cccc(Cl)c4)cc3)c2cc1OC [Example 820, 4-(4-{[2-(3-Chlorophenoxy)ethyl]sufanyl}phenoxy)-6,7-dimethoxyquinoline] | 187 nM
33 | COc1cc2nccc(Oc3ccc(SCCOc4cccc(F)c4)cc3)c2cc1OC [Example 821, 4-(4-{[2-(3-Fluorophenoxy)ethyl]sulfanyl}phenoxy)-6,7-dimethoxyquinoline] | 184 nM
34 | COc1cc2nccc(Oc3ccc(SCCOc4ccccc4F)cc3)c2cc1OC [Example 822] | 451 nM

same assay, conditions: Mo7e, figure in parentheses in −( ); at 1000 nM

Row | inhibition at 1 µM | Structure (SMILES)
35 | 26% | COc1cc2nccc(Oc3ccc(S(=O)(=O)CCOc4ccc(C)c(C)c4)cc3)c2cc1OC [Example 833, 4-[(6,7-Dimethoxy-4-quinolyl)oxy]phenyl [2-(3,4-dimethylphenoxy)ethyl]sulfone]
36 | 39% | COc1cc2nccc(Oc3ccc(S(=O)(=O)CCOc4ccccc4C(C)C)cc3)c2cc1OC [Example 836, 4-[(6,7-Dimethoxy-4-quinolyl)oxy]phenyl [2-(2-isopropylphenoxy)ethyl]sulfone]
37 | 14% | COc1cc2nccc(Oc3ccc([S+]([O-])CCOc4ccc(Cl)cc4Cl)cc3)c2cc1OC (stereo not shown) [Example 840, [2-(2,4-Dichlorophenoxy)ethyl]{4-[(6,7-dimethoxy-4-quinolyl)oxy]phenyl} sulfoxide]
38 | 33% | COc1cc2ncnc(Oc3ccc(SCCCOc4cccc(C)c4)cc3)c2cc1OC [Example 846, 6,7-Dimethoxy-4-(4-{[3-(3-methylphenoxy)propyl]sulfanyl}phenoxy)quinazoline]
39 | 9% | COc1cc2ncnc(Oc3ccc(SCCCCOc4cccc(C)c4)cc3)c2cc1OC [Example 847, 6,7-Dimethoxy-4-(4-{[4-(3-methylphenoxy)butyl]sulfanyl}phenoxy)quinazoline]

same assay, conditions: Mo7e, figure within parentheses in −( ) or >1000( ); at 1000 nM

Row | inhibition at 1 µM | Structure (SMILES)
40 | 35% | COc1cc2ncnc(Oc3ccc(OCC(=O)N4CCCCC4)cc3)c2cc1OC [Example 806, 2-{4-[(6,7-Dimethoxy-4-quinazolinyl)oxy]phenoxy}-1-piperidino-1-ethanone]
